Test results from the NIST ThermoML archive (doi:10.1021/je8009336).

Columns and labels:
[1] = xn = mol fraction of the nth substance listed; settings: 313.15 K, 101 kPa, Liquid; for speed of sound: Vibrating Tube Densimeter; for mass density: Vibrating tube method
[2] = refractive index (Na D-line) (dimensionless); xn = mol fraction of the nth substance listed; settings: 313.15 K, 101 kPa, Liquid, Standard Abbe refractometry
[3] = refractive index (Na D-line) (dimensionless); settings: 101.33 kPa, Liquid, Standard Abbe refractometry
[4] = Liquid; for mass density: Vibrating tube method; for speed of sound: Vibrating Tube Densimeter

CC1CCCCC1 [methylcyclohexane] + CCc1ccccc1
Settings	mass density, [1] [kg/m3]	refractive index, [2]	speed of sound, [1] [m/s]
x1 = 0.0509	843.8	1.48108	1249.9
x1 = 0.0975	838.9	1.4774	1243.4
x1 = 0.1957	828.6	1.46965	1230.3
x1 = 0.2794	820	1.46339	1219.8
x1 = 0.4006	807.9	1.45428	1205.4
x1 = 0.4962	798.4	1.44736	1194.9
x1 = 0.5977	788.6	1.44003	1184.5
x1 = 0.6968	779.2	1.43303	1174.9
x1 = 0.7988	769.7	1.42601	1165.7
x1 = 0.8973	760.9	1.41941	1157.5
x1 = 0.9483	756.4	1.41609	1153.5
x1 = 1	752	1.41272	1149.6

CCc1ccccc1 [ethylbenzene] + C1CCCCC1
Settings	mass density, [1] [kg/m3]	refractive index, [2]	speed of sound, [1] [m/s]
x2 = 0	849.3	1.48538	1257.3
x2 = 0.0515	844.7	1.4814	1251.8
x2 = 0.0976	840.5	1.47828	1247
x2 = 0.2494	826.7	1.46788	1231.8
x2 = 0.3647	816.2	1.45999	1221.3
x2 = 0.3855	814.3	1.45831	1219.3
x2 = 0.5028	803.6	1.45026	1209.4
x2 = 0.6009	794.6	1.44349	1201.9
x2 = 0.7005	785.6	1.43614	1195
x2 = 0.7976	776.9	1.42925	1189.2
x2 = 0.9017	768	1.42208	1184.5
x2 = 0.9504	763.8	1.41865	1182.8

c1ccccc1 [benzene]
[3]
Settings	refractive index
298.15 K	1.49775
313.15 K	1.48777

[4]
Settings	mass density, 298.15 K [kg/m3]	mass density, 313.15 K [kg/m3]	speed of sound, 313.15 K [m/s]
101 kPa	–	857.5	1230.5
101.33 kPa	873.5	–	–

CCc1ccccc1 [ethylbenzene]
[3]
Settings	refractive index
298.15 K	1.49304
313.15 K	1.48538

[4]
Settings	mass density, 298.15 K [kg/m3]	mass density, 313.15 K [kg/m3]	speed of sound, 313.15 K [m/s]
101 kPa	–	849.3	1257.3
101.33 kPa	862.5	–	–

c1ccccc1 [benzene] + C1CCCC1
x2 = 0
Settings	mass density [kg/m3]	refractive index	speed of sound [m/s]
[1]	857.5	–	1230.5
[2]	–	1.48777	–

C1CCCCC1 [cyclohexane] + CCc1ccccc1
x1 = 1
Settings	mass density [kg/m3]	refractive index	speed of sound [m/s]
[1]	759.6	–	1181.7
[2]	–	1.41513	–

Cc1ccccc1 [toluene] + CC1CCCCC1
x2 = 0
Settings	mass density [kg/m3]	refractive index	speed of sound [m/s]
[1]	848.2	–	1240.9
[2]	–	1.48509	–

C1CCCCC1 [cyclohexane] + c1ccccc1
Settings	mass density, [1] [kg/m3]	refractive index, [2]	speed of sound, [1] [m/s]
x1 = 0.0819	846.2	1.47958	1218.9
x1 = 0.1282	840.2	1.47489	1213.2
x1 = 0.2087	830.1	1.46761	1204.5
x1 = 0.2898	820.5	1.46073	1197
x1 = 0.4018	808.5	1.45171	1188.6
x1 = 0.5047	798.3	1.44414	1183.3
x1 = 0.6058	789.1	1.43724	1179.8
x1 = 0.7	780.9	1.43118	1177.7
x1 = 0.7989	773.2	1.42538	1177.3
x1 = 0.9059	765.7	1.41966	1178.6
x1 = 0.9505	762.7	1.41753	1179.7
x1 = 1	759.6	1.41513	1181.7

CC1CCCCC1 [methylcyclohexane] + c1ccccc1
Settings	mass density, [1] [kg/m3]	refractive index, [2]	speed of sound, [1] [m/s]
x1 = 0.0486	849.3	1.48201	1220.3
x1 = 0.0982	841.3	1.47621	1211.2
x1 = 0.1995	826.7	1.46566	1195.3
x1 = 0.2999	813.5	1.45619	1182.5
x1 = 0.4038	801.3	1.44745	1172
x1 = 0.4998	791.3	1.44043	1164.6
x1 = 0.612	780.7	1.43297	1158.1
x1 = 0.7053	772.6	1.42729	1154.2
x1 = 0.7994	765.3	1.42214	1151.5
x1 = 0.8991	758.4	1.41728	1149.9
x1 = 0.953	754.8	1.4148	1149.5
x1 = 1	752	1.41272	1149.6

C1CCCC1 [cyclopentane] + CCc1ccccc1
Settings	mass density, [1] [kg/m3]	refractive index, [2]	speed of sound, [1] [m/s]
x1 = 0.0393	845.5	1.48234	1251.9
x1 = 0.083	841.2	1.47928	1246.4
x1 = 0.1874	830.5	1.4714	1232.9
x1 = 0.2847	820	1.46405	1219.9
x1 = 0.3689	810.5	1.45715	1209.3
x1 = 0.541	789.9	1.44226	1186.8
x1 = 0.6281	778.7	1.43421	1175.5
x1 = 0.687	770.9	1.42853	1168
x1 = 0.7988	755.3	1.41702	1154
x1 = 0.898	740.8	1.40651	1141.9
x1 = 0.9475	733.2	1.40072	1135.9
x1 = 1	725	1.39456	1130

C1CCCC1 [cyclopentane]
[3]
Settings	refractive index
298.15 K	1.40342
313.15 K	1.39456

[4]
Settings	mass density, 298.15 K [kg/m3]	mass density, 313.15 K [kg/m3]	speed of sound, 313.15 K [m/s]
101 kPa	–	725	1130
101.33 kPa	740	–	–
